Earlier results, collected in patent publication US20170315129A1, “CANCER CELL DETECTION METHOD USING LIVING BODY-DERIVED CELLS OF BIOLOGICAL ORIGIN” (Hirosaki University, priority 2014, published 2017).

Tested on: mammalian cells
Settings: kinetics comparable to a radiolabeled D-glucose derivative; cited from earlier work

## O=[N+]([O-])c1ccc(N[C@H]2C(O)O[C@H](CO)[C@@H](O)[C@@H]2O)c2nonc12 (stereo partly shown) [2-NBDG]
  uptake into mammalian cells: taken up into mammalian cells through glucose transporters
